From paper PMC10447463, “Data-mining unveils structure–property–activity correlation of viral infectivity enhancing self-assembling peptides” (Nature Communications, 2023)
Read-outs that look alike come from different tables or passages of the source.

Legend:
[1] = format: physicochemical; design: key to Fibril / Fibril Formation / TEM 2cat / Fibril: 1 = fibrils present; 0 non-fibrillar structures; settings: for Fibril / Fibril Formation: 1 mg/mL, uranyl acetate stain, qualitative
[2] = Zeta-potential measurement; format: physicochemical
How it was run: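 Dissolve peptide from DMSO (10 mg/mL stock) into PBS pH 7.4 to 1 mg/mL. Incubate 1 d, RT. Dilute in 1 mM KCl just before reading. Derive zeta potential from mobility (Smoluchowski).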

[3] = Turbidity, derived count rate of scattered light; format: physicochemical; settings: for Count Rate / kcps: derived count rate of scattered light at 633 nm, 173°, from zeta-potential measurement, 0.1 mg/mL in 1 mM KCl after 1 d at 1 mg/mL in PBS, turbidity / microscopic aggregation, mean of triplicate
How it was run: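 One-day room-temperature aggregation at 1 mg/mL in PBS (pH 7.4) preceded measurement; samples then went into 1 mM KCl. Triplicates per sample, two independent experiments averaged.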

[4] = Turbidity, derived count rate of scattered light; format: physicochemical; settings: for Count Rate: derived count rate of scattered light (turbidity); for Log10 Count Rate: turbidity, derived count rate of scattered light, data of Figure 2D
[5] = FigS12 panel A, fibril category by TEM
[6] = TEM, 1 = fibrils present, 0 = non-fibrillar
[7] = TEM, 1 = fibrils present, 0 = non-fibrillar structures
[8] = zeta-potential of peptide, source data of Figure 2C
[9] = zeta-potential of the peptide assemblies, mean, Figure 3A source data
[10] = Log10 of derived count rate of scattered light (turbidity)
[11] = turbidity, Log10 of derived count rate of scattered light, Figure 3A source data
[12] = turbidity, log10 of derived count rate of scattered light
[13] = zeta potential of peptide assemblies
[14] = logarithm of count rate in kcps

Substance | TEM 2cat ([1]; Fig S10 panel D) | TEM 2cat [1, 5] | Fibril ([1]; FigS12 panel B, TEM) | Fibril / Fibril Formation ([1]; TEM) | Fibril [1, 6] | Fibril [1, 7] | Zeta-Pot. [2] | Zeta-Potential / mV [2, 8] [mV] | Zeta-Potential / mV [2, 9] [mV] | Log10 Count Rate [3, 10] | Count Rate / kcps [3] [kcps] | Log10 Count Rate [3, 11] | Log10 Count Rate [3, 12] | Count Rate [4] | Log10 Count Rate [4] | Fibril ([1]; Fig S10 panel E) | further results
HGEHGE | 0 | 0 | 0 | 0 | 0 | 0 | -12.6 | -8.73 | -12.6 | 2.381 | 241 | 2.381 | 2.381 | 240.6 | 2.381 |  | 
HGEHGEHGE | 0 | 0 | 0 | 0 | 0 | 0 | -24.2 | -14.63 | -24.2 | 2.532 | 340 | 2.532 | 2.532 | 340.4 | 2.532 | 0 | 
HHHHEIEIEIEI | 0 | 0 | 0 | 0 | 0 | 0 |  | -6.272 | -6.91 | 2.014 | 103 | 2.014 |  | 103.3 | 2.014 |  | Zeta-Pot. [2, 13]: -6.91; Log10 Count Rate ([3]; log10 of derived count rate of scattered light (turbidity)): 2.014
HIHIQIC | 1 |  |  | 1 | 1 | 1 | -3.687 | -5.093 | -3.69 | 2.416 | 261 | 2.416 | 2.416 | 260.6 | 2.416 | 1 | TEM 2cat ([1]; category: fibrils present or non-fibrillar): 1; Log10 Count Rate [3, 14]: 2.416
HLHLPLL | 0 | 0 | 0 | 0 | 0 | 0 | -9.053 | -5.247 | -9.05 | 2.301 | 200 | 2.301 | 2.301 | 200 | 2.301 | 0 | 
HRRHFRHKITKKK | 0 | 0 | 0 | 0 | 0 | 0 | -9.223 | -4.964 | -9.22 | 0.9777 | 10 | 0.9777 | 0.9777 | 9.5 | 0.9777 | 0 | 
KAKAQA | 0 | 0 | 0 | 0 | 0 | 0 |  | -10.04 | -14.08 | 1.321 | 21 | 1.321 | 1.321 | 20.93 | 1.321 | 0 | Zeta-Pot. [2, 13]: -14.08
KAKAQANMWQ | 0 | 0 | 0 | 0 | 0 | 0 | -19.63 | -14.675 | -19.63 | 1.749 | 56 | 1.749 | 1.749 | 56.17 | 1.749 | 0 | Zeta pot. / mV ([2]; 1 mg/mL in PBS pH 7.4 from 10 mg/mL DMSO stock, 1 d RT, 60 µL diluted in 600 µL 1 mM KCl, Zetasizer Nano ZS, Smoluchowski, mean of triplicate): -19.6 mV; Log10 Count Rate [3, 14]: 1.7
KAKQAANMWQ | 0 | 0 | 0 | 0 | 0 | 0 | -12.9 | -8.433 | -12.9 | 2.839 | 690 | 2.839 | 2.839 | 690.5 | 2.839 |  | 
